Laboratory results reported in patent US8344140B2, “18F-labelled folates” (Merck Eprova AG, priority 2007, dated 2013).

How the values were obtained:
[1] = in vitro plasma stability study, human plasma; type: in vitro ADME; settings: 37° C.
Protocol: (§1) The ^18F-click folate was employed in in vitro plasma stability studies and in metabolite studies using liver microsomes.
(§2) ^18F-click folate was incubated with both human and murine plasma at 37° C. in a shaking water bath. Aliquots were taken at different time points and analysed by HPLC.

[2] = in vitro plasma stability study, murine plasma; type: in vitro ADME; settings: 37° C.
Protocol: as §1, §2

[3] = metabolite study using human liver microsomes; type: in vitro ADME; settings: 37° C., aliquots at 0, 5, 15 and 30 min
Protocol: as §1
(§3) Metabolites studies using human and murine liver microsomes were carried out at 37° C. over a time span of 0-30 min. Aliquots were taken at 0, 5, 15 and 30 min.

[4] = metabolite study using murine liver microsomes; type: in vitro ADME; settings: 37° C., aliquots at 0, 5, 15 and 30 min
Protocol: as §1, §3

[5] = test system: folate receptor-positive KB tumors; assay: ex vivo biodistribution in nude mice bearing KB xenografts tumors; settings: ~2 MBq injected, 45 min post injection
Protocol: ^18F-click folate was applied in ex vivo biodistribution studies using eight nude mice bearing KB xenografts tumors. ˜2 MBq of the radiotracer were injected into each animal. In a blockade group (4 animals) […] natural folic acid was injected 10 min prior to the radiotracer. The animals were scarified 45 min post injection. […] Furthermore a specific uptake with 78% specific blockade was also found in the kidneys, which are known to express the folate receptor.

[6] = test system: folate receptor-positive KB tumors; assay: in vivo PET imaging in nude mice bearing KB xenografts tumors; settings: ~11 MBq injected; PET scans 15 min to 45 min post injection
Protocol: In vivo PET imaging using the ^18F-click folate was performed in nude mice bearing KB xenografts tumors. ˜11 MBq of the radiotracer were injected into each animal. In the blockade group 200 μg natural folic acid was injected 10 min prior to the radiotracer. The PET scans were acquired from 15 min to 45 min post injection.
The KB tumors could be imaged by PET using ^18F-click folate.
PET imaging using [^18F]FDG was performed with the same animals four days after the ^18F-click folate studies. ˜9 MBq of [^18F]FDG were injected into each animal. The PET scans were acquired from 30 min to 60 min post injection. […] Although [^18F]FDG is the most commonly used radiotracer in PET tumor imaging, it is known that [^18F]FDG is not suitable for the imaging of KB xenografts tumors (Bettio et al, J. Nucl. Med. […]; 47: 1153-60).
FIG. 4 show the PET images using ^18F-click folate (left hand side) in comparison to PET images using [^18F]FDG (right hand side), the arrows indicate the position of the KB xenografts tumors.

- stability in plasma ([1]; HPLC analysis, 0-120 min): high stability
- stability in plasma ([2]; HPLC analysis, 0-120 min): high stability
- unspecific uptake in gallbladder, intestine and feces ([5]; points to hepatobiliary elimination): High unspecific uptake
- accumulation of radioactivity in the abdominal region (gallbladder, intestines) [6]: high accumulation
Structure (SMILES): Nc1nc2ncc(CNc3ccc(C(=O)NC(CCC(=O)NCCCCn4cc(CCCC[18F])nn4)C(=O)O)cc3)nc2c(=O)[nH]1 (centres unmarked) [^18F-click folate, γ-(4-(4-(4-[^18F]fluorobutyl)-1,2,3-triazol-1-yl)butyl) folic acid amide]
- defluorination or other radioactive degradation products in plasma ([1]; over a period of 0-120 min): No defluorination or other radioactive degradation products were detected
- defluorination or other radioactive degradation products in plasma ([2]; over a period of 0-120 min): No defluorination or other radioactive degradation products were detected
- radioactive metabolites or degradation in liver microsomes [3]: no radioactive metabolites or degradation
- radioactive metabolites or degradation in liver microsomes [4]: no radioactive metabolites or degradation
- specific blockade of radiotracer uptake in KB tumors ([5]; KB tumors, natural folic acid 10 min prior in blockade group): 94%
- specific blockade of radiotracer uptake in kidneys ([5]; kidneys, natural folic acid 10 min prior in blockade group): 78%
- tumor-to-background ratio [6]: low
